Where “and” joins values, the source holds several entries; their conditions need not be identical. Equal values may be shown once. Where a name gives a salt, the structure may show the parent alone. Read-outs that look alike come from different tables or passages of the source.
Columns and labels:
[1] = In vitro PAR transport across harvested intestinal segments, EasyMount Ussing System: jejunum; type: in vitro ADME; settings: rat; for Papp at 15 mg/ml: 15 mg/ml PAR
Method: HEPES buffer was used as the base mucosal and serosal fluid. […] First 5 ml of HEPES buffer was added to each of the two chambers (mucosal and serosal) and allowed to equilibrate for 20 min. […] Aliquots of sample solution were removed from the chamber on other side of the mounted intestinal segment periodically and replaced with an equal volume of fresh warm HEPES buffer. […] These additives, either alone or in combinations, were dissolved in HEPES buffer on percent weight/weight basis of the HEPES medium. Owing to the expected variation in the in-vitro conditions and harvested rat intestinal segments, four replicates were used per experimental condition. The apparent permeability coefficients (Papp) were calculated according to: Papp=(dQ/dt)/C0×A, where dQ/dt is the linear appearance rate of mass in receiver compartment, C0 is the initial solute concentration in donor compartment, and A is the surface area. […] The drug in post column eluant was derivatized with Dinitrofluorobenzene (DNFB) and monitored at 360 nm. The run time was 30 minutes.

[2] = In vitro PAR transport across harvested intestinal segments, EasyMount Ussing System: colon; type: in vitro ADME; settings: rat, 5 mg/ml (~25 mg) paromomycin in mucosal chamber, tissue area 0.5 sq cm
Method: (§1) HEPES buffer was used as the base mucosal and serosal fluid. […] First 5 ml of HEPES buffer was added to each of the two chambers (mucosal and serosal) and allowed to equilibrate for 20 min. […] Aliquots of sample solution were removed from the chamber on other side of the mounted intestinal segment periodically and replaced with an equal volume of fresh warm HEPES buffer.
(§2) These additives, either alone or in combinations, were dissolved in HEPES buffer on percent weight/weight basis of the HEPES medium. Owing to the expected variation in the in-vitro conditions and harvested rat intestinal segments, four replicates were used per experimental condition.
(§3) The apparent permeability coefficients (Papp) were calculated according to:
(§4) Papp=(dQ/dt)/C0×A, where dQ/dt is the linear appearance rate of mass in receiver compartment, C0 is the initial solute concentration in donor compartment, and A is the surface area.
(§5) The drug in post column eluant was derivatized with Dinitrofluorobenzene (DNFB) and monitored at 360 nm. The run time was 30 minutes.

[3] = In vitro PAR transport across harvested intestinal segments, EasyMount Ussing System: ileum; type: in vitro ADME; settings: rat, 5 mg/ml (~25 mg) paromomycin in mucosal chamber, tissue area 0.5 sq cm
Method: as §1, §2, §3, §4, §5

[4] = Paromomycin in vivo absorption (pharmacokinetic) studies in rats; design: species or system Male rats (Sprague Dawley)
Method: Paromomycin was extracted from plasma samples (100 μl volume) with phenylboronic acid solid phase extraction columns, and the bound drug was eluted from the columns with 1% (v/v) formic acid in water. The acid eluates were evaporated under vacuum, and then the dry residues were reconstituted in 100 μl of 1 mM heptafluorobutyric acid (HFBA) in water.

[5] = historically considered (ref. 6); cited from earlier work
[6] = In vitro PAR transport across harvested intestinal segments, EasyMount Ussing System: duodenum; type: in vitro ADME; settings: rat, 5 mg/ml (~25 mg) paromomycin in mucosal chamber, tissue area 0.5 sq cm
Method: as §1, §2, §3, §4, §5

[7] = male rats, i.v. 100 mg/kg, Group #1, individual rats, 100 mg/kg
[8] = male, Sprague Dawley, rat, plasma, iv, 100 mg/kg, i.v. 100 mg/kg, Group #1, Mean of 3 rats

## NC[C@@H]1O[C@H](O[C@H]2[C@@H](O)[C@H](O[C@@H]3[C@@H](O)[C@H](N)C[C@H](N)[C@H]3O[C@H]3O[C@H](CO)[C@@H](O)[C@H](O)[C@H]3N)O[C@@H]2CO)[C@H](N)[C@@H](O)[C@@H]1O [PAR, Paromomycin sulfate]
[1]; jejunum M-to-S, Sodium Decanoate in mucosal 0.2 mg/ml (equilibrated 20 min before drug)
  Papp at 15 mg/ml: 1.48 ×10⁻⁶ cm/s
[1]; jejunum M-to-S, Sodium Decanoate in mucosal 0.5 mg/ml (equilibrated)
  Papp at 15 mg/ml: 2.22 ×10⁻⁶ cm/s
[1]; jejunum M-to-S, Sodium Decanoate in mucosal 1 mg/ml (equilibrated)
  Papp at 15 mg/ml: 4.4 ×10⁻⁶ cm/s
[1]; jejunum M-to-S, Sodium Decanoate in mucosal 1 mg/ml (not equilibrated)
  Papp at 15 mg/ml: 3.83 ×10⁻⁶ cm/s
[1]; jejunum M-to-S, Sodium Decanoate in serosal 0.2 mg/ml (not equilibrated)
  Papp at 15 mg/ml: 3.86 ×10⁻⁶ cm/s
[1]; jejunum M-to-S, Sodium Decanoate in serosal 0.5 mg/ml (not equilibrated)
  Papp at 15 mg/ml: 3.54 ×10⁻⁶ cm/s
[1]; jejunum M-to-S, Sodium Decanoate in serosal 1.0 mg/ml (not equilibrated)
  Papp at 15 mg/ml: 7.2 ×10⁻⁶ cm/s
[1]; jejunum M-to-S, no Quinidine, no Sodium Decanoate, tissue area 0.5 sq cm
  Papp at 15 mg/ml: 2.63 ×10⁻⁶ cm/s
[1]; jejunum S-to-M, no Quinidine
  Papp at 15 mg/ml: 2.75 ×10⁻⁶ cm/s
[1]; jejunum, 5 mg/ml (~25 mg) paromomycin in mucosal chamber, tissue area 0.5 sq cm
  Papp at […], 5 mg/ml: 3.93 ×10⁻⁶ cm/s
[1]; with quinidine 0.05 mg/ml in mucosal chamber, jejunum M-to-S, 0.05 mg/ml Quinidine in mucosal
  Papp at 15 mg/ml: 4.37 ×10⁻⁶ cm/s
[1]; with quinidine 0.05 mg/ml in mucosal chamber, jejunum S-to-M, 0.05 mg/ml Quinidine in mucosal
  Papp at 15 mg/ml: 1.85 ×10⁻⁶ cm/s
[2]
  Papp at […], 5 mg/ml: 2.07 ×10⁻⁶ cm/s
[3]
  Papp at […], 5 mg/ml: 2.22 ×10⁻⁶ cm/s
[4]; male rats, i.v. 100 mg/kg in sterile saline, Group #1, individual rats, 100 mg/kg
  t1/2: 2.70 h and 2.86 h
[4]; male rats, i.v. 100 mg/kg, Group #1, Mean of 3 rats
  V: 5.40 L/kg
[4]; [7]
  AUC: 55465 ng·h/mL and 85847 ng·h/mL
  Cl: 30 mL/min/kg and 19.3 mL/min/kg
  Cmax: 95.651 µg/mL and 101.318 µg/mL
  V: 4.39 L/kg and 7.01 L/kg and 4.80 L/kg
[4]; male, Sprague Dawley, rat, plasma, iv, 100 mg/kg, i.v. 100 mg/kg in sterile saline, Group #1, individual rats
  half-life: 2.85 h
[4]; [8]
  clearance: 22.3 mL/min/kg
  half-life: 2.8 h
[4]; male, Sprague Dawley, rat, plasma, iv, 100 mg/kg, i.v. 100 mg/kg, Group #1, Mean of 3 rats, read-out: AUC
  AUC: 78300 ng·h/mL
[4]; male, Sprague Dawley, rat, plasma, iv, 100 mg/kg, i.v. 100 mg/kg, Group #1, Mean of 3 rats, read-out: Cmax
  Cmax: 124 µg/mL
[4]; male, Sprague Dawley, rat, plasma, iv, 100 mg/kg, i.v. 100 mg/kg, Group #1, individual rats
  clearance: 17.8 mL/min/kg
[4]; male, Sprague Dawley, rat, plasma, iv, 100 mg/kg, i.v. 100 mg/kg, Group #1, individual rats, read-out: AUC
  AUC: 93500 ng·h/mL
[4]; male, Sprague Dawley, rat, plasma, iv, 100 mg/kg, i.v. 100 mg/kg, Group #1, individual rats, read-out: Cmax
  Cmax: 174 µg/mL
[5]
  oral bioavailability: close to zero
[6]
  Papp at […], 5 mg/ml: 1.94 ×10⁻⁶ cm/s
